Results as given in patent US20230287044A1, “NOVEL ANTIBACTERIAL PEPTIDE AND USE THEREOF” (priority 2020, published 2023).
Values after ≈ are worked out from the molar mass of the structure shown. Square brackets hold non-standard residues; d marks the D form. Peptide text beside a SMILES is read from it. * marks the point of attachment. NH(β-GlcNAc) = CC(=O)N[C@@H]1[C@@H](O)[C@H](O)[C@@H](CO)O[C@H]1N*

Assays:
[1] = system: MRPA (P. aeruginosa) CCARM 2180; assay type: cell-based, Pseudomonas aeruginosa; conditions: CCARM 2180, 18 h
Protocol: (§1) The minimum growth inhibitory concentrations of the antibacterial peptides of the present invention weremeasured, and the results are shown in Table 3 below.
(§2) Specifically, the strains were grown in CAMHB until the midlog phase, and then diluted with PBS buffer to 1× 10^6 cfu/ml to prepare the bacterial solution, and the antibacterial peptide prepared in Example 1above was diluted with CAMHB to 80 µM, 40 µM, 20 µM, 10 µM, 5 µM, 2.5 µM, 1.25 µM and 0.63 µM, and then the bacterial solution was treated with the same volume.
(§3) The results are the average value of three independent experiments.

[2] = system: MRAB (A. baumannii) ATCC BAA 1605; assay type: cell-based, Acinetobacter baumannii; conditions: ATCC BAA 1605, 18 h
Protocol: as §1, §2, §3

[3] = system: MRSA (S. aureus) KCCM 40510; assay type: cell-based, Staphylococcus aureus; conditions: KCCM 40510, 18 h
Protocol: as §1, §2, §3

[4] = system: VRE (E. faecalis) ATCC 51575; assay type: cell-based, Enterococcus faecalis; conditions: ATCC 51575, 18 h
Protocol: as §1, §2, §3

MIC MRPA (P. aeruginosa) CCARM 2180 [1] [µM]	MIC MRAB (A. baumannii) ATCC BAA 1605 [2] [µM]	MIC MRSA (S. aureus) KCCM 40510 [3] [µM]	MIC VRE (E. faecalis) ATCC 51575 [4] [µM]	SMILES
2.5 (≈ 3.96 µg/mL)	0.63 (≈ 0.999 µg/mL)	1.25 (≈ 1.98 µg/mL)	1.25 (≈ 1.98 µg/mL)	CC[C@@H](C)[C@@H](NC(=O)[C@@H](Cc1c[nH]c2ccccc12)NC(=O)[C@@H](CCCNC(=N)N)NC(=O)[C@@H](CCCNC(=N)N)NC(=O)[C@H](N)CCCNC(=N)N)C(=O)N[C@H](Cc1c[nH]c2ccccc12)C(=O)N[C@H](Cc1c[nH]c2ccccc12)C(=O)N[C@H](CC(C)C)C(=O)N[C@H](Cc1c[nH]c2ccccc12)C(=O)N[C@H](CCCCN)C(N)=O [KSH50, rrrwiwwlwk] (H-[dR][dR][dR][dW][dI][dW][dW][dL][dW][dK]-NH2; N-terminus assumed)
2.5 (≈ 3.42 µg/mL)	0.63 (≈ 0.863 µg/mL)	0.63 (≈ 0.863 µg/mL)	0.63 (≈ 0.863 µg/mL)	CC[C@@H](C)[C@@H](NC(=O)[C@@H](Cc1c[nH]c2ccccc12)NC(=O)[C@@H](CCCNC(=N)N)NC(=O)[C@H](N)CCCNC(=N)N)C(=O)N[C@H](Cc1c[nH]c2ccccc12)C(=O)N[C@@H](C(=O)N[C@H](CC(C)C)C(=O)N[C@H](Cc1c[nH]c2ccccc12)C(=O)N[C@H](CCCNC(=N)N)C(N)=O)C(C)C [KSH54, rrwiwvlwr] (H-[dR][dR][dW][dI][dW][dV][dL][dW][dR]-NH2; N-terminus assumed)
2.5 (≈ 3.42 µg/mL)	0.63 (≈ 0.863 µg/mL)	0.63 (≈ 0.863 µg/mL)	0.63 (≈ 0.863 µg/mL)	CC[C@@H](C)[C@@H](NC(=O)[C@@H](Cc1c[nH]c2ccccc12)NC(=O)[C@@H](CCCNC(=N)N)NC(=O)[C@H](N)CCCNC(=N)N)C(=O)N[C@H](Cc1c[nH]c2ccccc12)C(=O)N[C@@H](C(=O)N[C@H](CC(C)C)C(=O)N[C@H](Cc1c[nH]c2ccccc12)C(=O)N[C@@H](CCCNC(=N)N)C(N)=O)C(C)C [KSH55, rrwiwvlwR] (H-[dR][dR][dW][dI][dW][dV][dL][dW]R-NH2; N-terminus assumed)
5 (≈ 6.57 µg/mL)	1.25 (≈ 1.64 µg/mL)	1.25 (≈ 1.64 µg/mL)	1.25 (≈ 1.64 µg/mL)	CC(C)[C@@H](NC(=O)[C@@H](Cc1c[nH]c2ccccc12)NC(=O)[C@@H](CCCNC(=N)N)NC(=O)[C@H](N)CCCNC(=N)N)C(=O)N[C@H](Cc1c[nH]c2ccccc12)C(=O)N[C@@H](C(=O)N[C@@H](C(=O)N[C@H](Cc1c[nH]c2ccccc12)C(=O)N[C@H](CCCCN)C(N)=O)C(C)C)C(C)C [KSH56, rrwvwvvwk] (H-[dR][dR][dW][dV][dW][dV][dV][dW][dK]-NH2; N-terminus assumed)
20 (≈ 29.4 µg/mL)	5 (≈ 7.35 µg/mL)	20 (≈ 29.4 µg/mL)	20 (≈ 29.4 µg/mL)	CC(C)[C@@H](NC(=O)[C@@H](Cc1c[nH]c2ccccc12)NC(=O)[C@@H](CCCNC(=N)N)NC(=O)[C@@H](CCCNC(=N)N)NC(=O)[C@H](N)CCCNC(=N)N)C(=O)N[C@H](Cc1c[nH]c2ccccc12)C(=O)N[C@@H](C(=O)N[C@@H](C(=O)N[C@H](Cc1c[nH]c2ccccc12)C(=O)N[C@H](CCCCN)C(N)=O)C(C)C)C(C)C [KSH57, rrrwvwvvwk] (H-[dR][dR][dR][dW][dV][dW][dV][dV][dW][dK]-NH2; N-terminus assumed)
2.5 (≈ 3.46 µg/mL)	1.25 (≈ 1.73 µg/mL)	0.63 (≈ 0.872 µg/mL)	0.63 (≈ 0.872 µg/mL)	CC[C@@H](C)[C@@H](NC(=O)[C@@H](Cc1c[nH]c2ccccc12)NC(=O)[C@H](NC(=O)[C@@H](Cc1c[nH]c2ccccc12)NC(=O)[C@@H](CCCNC(=N)N)NC(=O)[C@@H](CCCNC(=N)N)NC(=O)[C@H](N)CCCNC(=N)N)[C@H](C)CC)C(=O)N[C@H](CC(C)C)C(=O)N[C@H](Cc1c[nH]c2ccccc12)C(N)=O [KSH59, rrrwiwilw] (H-[dR][dR][dR][dW][dI][dW][dI][dL][dW]-NH2; N-terminus assumed)

The next lines start with the molecule.

SMILES	MIC MRPA (P. aeruginosa) CCARM 2180 [1] [µM]	MIC MRAB (A. baumannii) ATCC BAA 1605 [2] [µM]	MIC MRSA (S. aureus) KCCM 40510 [3] [µM]	MIC VRE (E. faecalis) ATCC 51575 [4] [µM]
CC[C@@H](C)[C@@H](NC(=O)[C@@H](Cc1c[nH]c2ccccc12)NC(=O)[C@@H](CCCNC(=N)N)NC(=O)[C@@H](CCCNC(=N)N)NC(=O)[C@@H](CCCNC(=N)N)NC(=O)[C@@H](N)CC(=O)N[C@@H]1O[C@H](CO)[C@@H](O)[C@H](O)[C@H]1NC(C)=O)C(=O)N[C@H](Cc1c[nH]c2ccccc12)C(=O)N[C@@H](C(=O)N[C@H](CC(C)C)C(=O)N[C@H](Cc1c[nH]c2ccccc12)C(=O)N[C@H](CCCCN)C(N)=O)C(C)C [KSH47, Nrrrwiwvlwk] (H-D(NH(β-GlcNAc))[dR][dR][dR][dW][dI][dW][dV][dL][dW][dK]-NH2; N-terminus assumed)	10 (≈ 18.2 µg/mL)	1.25 (≈ 2.27 µg/mL)	2.5 (≈ 4.54 µg/mL)	2.5 (≈ 4.54 µg/mL)
CC[C@@H](C)[C@@H](NC(=O)[C@@H](Cc1c[nH]c2ccccc12)NC(=O)[C@@H](CCCNC(=N)N)NC(=O)[C@@H](CCCNC(=N)N)NC(=O)[C@H](N)CCCNC(=N)N)C(=O)N[C@H](Cc1c[nH]c2ccccc12)C(=O)N[C@@H](C(=O)N[C@H](CC(C)C)C(=O)N[C@H](Cc1c[nH]c2ccccc12)C(=O)N[C@H](CCCCN)C(=O)N[C@@H](CC(=O)N[C@@H]1O[C@H](CO)[C@@H](O)[C@H](O)[C@H]1NC(C)=O)C(N)=O)C(C)C [KSH48, rrrwiwvlwkN] (H-[dR][dR][dR][dW][dI][dW][dV][dL][dW][dK]D(NH(β-GlcNAc))-NH2; N-terminus assumed)	2.5 (≈ 4.54 µg/mL)	0.63 (≈ 1.14 µg/mL)	2.5 (≈ 4.54 µg/mL)	2.5 (≈ 4.54 µg/mL)
CC(=O)N[C@@H]1[C@@H](O)[C@H](O)[C@@H](CO)O[C@H]1NC(=O)C[C@H](NC(=O)[C@@H](CCCNC(=N)N)NC(=O)[C@@H](CCCNC(=N)N)NC(=O)[C@@H](CCCNC(=N)N)NC(=O)[C@@H](Cc1c[nH]c2ccccc12)NC(=O)[C@H](NC(=O)[C@H](NC(=O)[C@@H](Cc1c[nH]cn1)NC(=O)[C@H](NC(=O)[C@H](NC(=O)[C@H](N)Cc1c[nH]c2ccccc12)C(C)C)C(C)C)C(C)C)C(C)C)C(N)=O [KSH49, wvvhvvwrrrN] (H-[dW][dV][dV][dH][dV][dV][dW][dR][dR][dR]D(NH(β-GlcNAc))-NH2; N-terminus assumed)	10 (≈ 17.1 µg/mL)	2.5 (≈ 4.27 µg/mL)	1.25 (≈ 2.14 µg/mL)	1.25 (≈ 2.14 µg/mL)
CC[C@@H](C)[C@@H](NC(=O)[C@@H](Cc1c[nH]c2ccccc12)NC(=O)[C@@H](CCCCN)NC(=O)[C@@H](CCCNC(=N)N)NC(=O)[C@H](N)CCCNC(=N)N)C(=O)N[C@H](Cc1c[nH]c2ccccc12)C(=O)N[C@H](Cc1c[nH]c2ccccc12)C(=O)N[C@H](CC(C)C)C(=O)N[C@H](Cc1c[nH]c2ccccc12)C(=O)N[C@H](CCCCN)C(N)=O [KSH51, rrkwiwwlwk] (H-[dR][dR][dK][dW][dI][dW][dW][dL][dW][dK]-NH2; N-terminus assumed)	5 (≈ 7.78 µg/mL)	1.25 (≈ 1.95 µg/mL)	1.25 (≈ 1.95 µg/mL)	1.25 (≈ 1.95 µg/mL)
CC[C@@H](C)[C@@H](NC(=O)[C@@H](Cc1c[nH]c2ccccc12)NC(=O)[C@@H](CCCCN)NC(=O)[C@@H](CCCNC(=N)N)NC(=O)[C@H](N)CCCNC(=N)N)C(=O)N[C@H](Cc1c[nH]c2ccccc12)C(=O)N[C@H](Cc1c[nH]c2ccccc12)C(=O)N[C@H](CC(C)C)C(=O)N[C@H](Cc1c[nH]c2ccccc12)C(=O)N[C@H](CCCCN)C(=O)N[C@H](CCCCN)C(=O)N[C@H](CCCCN)C(N)=O [KSH52, rrkwiwwlwkkk] (H-[dR][dR][dK][dW][dI][dW][dW][dL][dW][dK][dK][dK]-NH2; N-terminus assumed)	5 (≈ 9.07 µg/mL)	1.25 (≈ 2.27 µg/mL)	5 (≈ 9.07 µg/mL)	5 (≈ 9.07 µg/mL)
CC(C)[C@@H](NC(=O)[C@@H](Cc1c[nH]cn1)NC(=O)[C@@H](CCCNC(=N)N)NC(=O)[C@@H](CCCNC(=N)N)NC(=O)[C@H](N)CCCNC(=N)N)C(=O)N[C@H](Cc1c[nH]cn1)C(=O)N[C@@H](C(=O)N[C@@H](C(=O)N[C@H](Cc1c[nH]c2ccccc12)C(=O)N[C@H](CCCCN)C(N)=O)C(C)C)C(C)C [KSH58, rrrhvhvvwk] (H-[dR][dR][dR][dH][dV][dH][dV][dV][dW][dK]-NH2; N-terminus assumed)	10 (≈ 13.7 µg/mL)	5 (≈ 6.86 µg/mL)	10 (≈ 13.7 µg/mL)	10 (≈ 13.7 µg/mL)
CC(C)[C@@H](NC(=O)[C@H](N)Cc1c[nH]c2ccccc12)C(=O)N[C@@H](C(=O)N[C@H](Cc1c[nH]c2ccccc12)C(=O)N[C@@H](C(=O)N[C@H](Cc1c[nH]c2ccccc12)C(=O)N[C@H](CCCCN)C(=O)N[C@H](CCCCN)C(=O)N[C@H](CCCCN)C(N)=O)C(C)C)C(C)C [KSH66, wvvwvwkkk] (H-[dW][dV][dV][dW][dV][dW][dK][dK][dK]-NH2; N-terminus assumed)	>10	1.25 (≈ 1.57 µg/mL)	1.25 (≈ 1.57 µg/mL)	0.63 (≈ 0.792 µg/mL)
